The nature of this assay: AMP/ATP, NAD+/NADH and NADP+/NADPH ratios in liver after intravenous administration. It counts as in vivo, mouse. The protocol:
Acid extraction was used for analysis of an AOPN concentration in the cells and liver tissues. 400 μl of 6% HClO4 was added to the cells cultured in a 100 mm dish, whereas a two-fold volume of 6% HClO4 was added to the liver tissues which were then immediately homogenized. Each mixture was centrifuged at 14,000 g and 4° C. for 10 min, and the resulting supernatants were neutralized by addition of 1 M borate buffer (pH 11) containing 4 mM EDTA in an amount of 75%. Samples were aliquoted and stored at a temperature of −80° C.
Analysis of an RPN concentration in liver tissues was carried out using alkali extraction. An equal volume of ice-cold 0.5 M KOH was added to the liver tissues which were then immediately homogenized. Thereafter, a two-fold volume of ice-cold distilled water was added and mixed with the liver tissues for 2 min, and the mixture was centrifuged using an Amicon ultrafiltration membrane (MILLIPORE) at 14,000 g and 4° C. for 40 min. The thus-obtained filtrate was neutralized by addition of 1 M KH2PO4 (pH 6.5) in an amount of 10%. Samples were aliquoted and stored at a temperature of −70° C. Concentration determination was made within 72 hours.
A mobile phase was 100 mM ammonium acetate:MeOH (98:2, v/v), and preparations were filtered through a 0.22-μm Millipore filter. A flow rate was set to 0.8 mL/min and detection was made at 254 nm. Separation was carried out using a ZORBAX Bonus-RP C18 column (3.5 μm, 4.6×150 mm I.D., […]). The samples were maintained at 4° C. in a thermostatted autosampler until they were loaded onto the column.
In order to assay ATP, ADP, AMP, NAD and NADP levels, 450 μl of 5 mM ammonium acetate was added to 50 μl of a liver sample extracted with perchloric acid (HClO4) which was then diluted ten times. Diluted samples were vortexed and mixed for 1 min, and the mixture was filtered through a 0.2 μm nylon syringe filter (Whatman, Brentford, UK). Then, 5 μl of each aliquot was injected into a HPLC system. Each standard solution (50 μl) for these analytes was added to 50 μl of an extraction solution containing 2-chloroadenosine (internal standard) and 400 μl of 5 mM ammonium acetate, and mixed and filtered in the same manner as in the above samples. For analysis of NADH and NADPH, each 100 μl of liver samples extracted with a potassium hydroxide (KOH) solution was diluted twice with an equal amount of a 5 mM ammonium acetate (KOH solution for standards). HPLC system consists of an Agilent 1100 series vacuum degasser, a binary pump, an autosampler, a thermostatted column compartment, and a DAD detector (Agilent Technologies, Palo Alto, Calif.). Adenine and nucleotide analogues were separated by Waters XTena MS C18 2.1×150 mm, 3.5 μm column (Waters, Milford, Mass., USA) chromatography using a gradient method. A mobile phase for adenine and nucleotide analogues was 5 mM ammonium acetate (A) and methanol (B). NAD^+-related compounds were separated by linear gradient elution of initial 98% (A) to final 70% (B) at a time point of 8 min. The mobile phase was developed at 70% (B) for 7 min. Finally, the mobile phase was returned to 98% (A) at a point of 16 min, and reequilibrated to 98% (A) for 12 min. A flow rate was set to 0.2 mL/min throughout the entire period of time. An injection volume was 5 μl. Electrospray-ionization mass spectrometry (ESI-MS) was carried out in a positive ion mode using MDS Sciex API 4000 Triple Quadrupole Mass Spectrometer (Applied Biosystems, Ontario, Calif.).
5 mg/kg of pyrano-1,2-naphthoquinone was intravenously administered to a tail vein of DIO mice and changes in an NADH amount and an NAD^+/NADH ratio of liver tissues were examined for 6 hours.

The mark [1] stands for this setting: 5 mg/kg intravenous, liver of DIO mice.

Take `CC1(C)CCC2=C(O1)c1ccccc1C(=O)C2=O` [βL, 2,2-Dimethyl-3,4-dihydro-2H-benzo[h]chromene-5,6-dione]: under “5 mg/kg intravenous, liver”, the “numerical value of NADP+” value is reported as “no significant change” and the “time point of maximum NAD+/NADPH ratio” value was 120 min. Also, under setting [1], the “time point of highest AMP/ATP ratio” value came to 30 min; the “time point of maximum NAD+ amount and NAD+/NADH ratio” value is recorded as 120 min; the “time point of maximum increase of AMP concentration” value was determined as 30 min; the “time point of recovery of AMP concentration to a normal level” value stood at 120 min. For the same molecule, the “time point of recovery of AMP/ATP ratio to the initial state” value under setting [1] is listed as 360 min. The “changes in the AMP/ATP and NAD+/NADP ratios” value (DIO mice) is “significant changes”. Also, the “AMP/ATP and NAD+/NADH ratios in the liver compared to control group” value (intravenous (IV) injection) was “higher”.

Source of the values: patent US20140106387A1, “METHOD FOR CONTROLLING NAD(P)/NAD(P)H RATIO BY OXIDOREDUCTASE” (MD BIOALPHA CO., LTD., priority 2006, published 2014).
